Experimental findings from patent publication US7511062B2, “Substituted 2-quinolyl-oxazoles useful as PDE4 inhibitors” (Schering Corporation, priority 2004, dated 2009) are described below.

The structures appear in SMILES notation.

The assay addresses Human PDE4 Enzyme. In words: PDE4 screening assay ([3H]cAMP SPA). Type of assay: biochemical. As to conditions: human neutrophil PDE4, [3H]cAMP SPA. The protocol:
The neutrophils were isolated from human blood using a standard procedure, then homogenized with a glass-glass homogenizer in a buffer containing 20 mM Tris/HCl (pH 8.0), protease inhibitor cocktail tablet (Cat. No. 1836145/Boehringer Mannheim), 2 mM EDTA, 1% Triton X-100 and 0.5% deoxycholate. After stirring for 2 h at 4° C., the samples were centrifuged at 100,000 g for 1 h. The supernatants were collected, filtered and applied to Mono Q column chromatography. The fractions containing the activity of hydrolyzing cAMP were determined and pooled as the enzymatic source of the PDE4 screening assay.
2. PDE4 Assay and Compound Screening
The PDE4 assays were performed using Phosphodiesterase [^3H]cAMP SPA enzyme assay kits and its procedures (Cat. No. TRKQ 7090, Amersham). The assay procedures are described briefly as follows. The diluted PDE4 enzyme, 10× assay buffer and water were mixed at a ratio of 1:1:6 (10 μl/10 μl/60 μl). 80 μl aliquots of this mixture were added into the test wells of a 96-well Microlite plate (Cat. No. 7416, ThermoLabsystems). Enzyme dilution buffer, instead of the diluted enzyme, and water were added into the wells of negative control (background). 10 μl test compounds in 10% DMSO, standard inhibitor in 10% DMSO or 10% DMSO (for positive and negative controls) were added into the corresponding wells, respectively. After a 10 min incubation at RT, the reactions were initiated by addition of 10 μl pre-diluted [^3H]cAMP into each well, then incubated at 30° C. for 30 min. The reactions were stopped by addition of 50 μl SPA beads into the test wells, then counted in a β-counter over 30 min ˜24 hr.
10× Assay Buffer: 500 mM Tris/HCl pH 7.5, 83 mM MgCl2, 17 mM EGTA
[^3H]cAMP: [3H] cAMP (40-60 Ci/mmol) is diluted at a 1:200 ratio with water. The final concentration is 0.005 μCi/μl
Yttrium SPA Beads: 500 mg of beads was reconstituted with 28 ml of water, stored at 4° C.
Turning to `COc1ccc(-c2nc(C(=O)NC3CCCc4nccnc43)c([C@H](C)N)o2)c2ccc(C(F)(F)F)nc12` (mixture of isomers) [26-42], the IC50 (in general, the concentration that inhibits the measured activity by half) is 0.07 nM. This lies in the picomolar range.
As to `COc1ccc(-c2nc(C(=O)NCc3csc4ccccc34)c(CN)o2)c2ccc(C(F)(F)F)nc12` [13-106], the IC50 was determined as 0.14 nM.
The figure for `COc1ccc(-c2nc(C(=O)NCc3coc4ccccc34)c([C@H](C)N)o2)c2ccc(C(F)(F)F)nc12` [26-92] is 0.01 nM.
Regarding `COc1ccc(-c2nc(C(=O)N3CCC(Nc4ncccn4)CC3)c([C@H](C)N)o2)c2ccc(C(F)(F)F)nc12` [26-177], the midpoint of inhibition, the IC50, lay at 3 nM.
On to `COc1ccc(-c2nc(C(=O)N3C[C@](O)(c4ncccn4)C[C@H]3C(=O)OC(C)C)c([C@H](C)N)o2)c2ccc(C(F)(F)F)nc12` [26-241], for which half-maximal inhibition (IC50) was put at 0.2 nM.
The figure for `COc1ccc(-c2nc(C(=O)N3CCN(C(=O)C4CC4)CC3)c([C@H](C)N)o2)c2ccc(C(F)(F)F)nc12` [26-293] is 0.5 nM; for `COc1ccc(-c2nc(C(=O)N[C@H]3CCC[C@@H]3O)c([C@H](C)N)o2)c2ccc(C(F)(F)F)nc12` [26-417] it is 1.4 nM; for `COc1ccc(-c2nc(C(=O)NC[C@@H](C)NC(=O)C3CC3)c([C@H](C)N)o2)c2ccc(C(F)(F)F)nc12` [26-444] it is 0.03 nM.
In turn, `COc1ccc(-c2nc(C(=O)NCc3ccc(F)cc3F)c([C@@H](N)CO)o2)c2ccc(C(F)(F)F)nc12` [38-3] returned an IC50 of 1.8 nM.
